Data: patent publication US20230042936A1, “PYRIDO[2,3-d]PYRIMIDIN-7(8H)-ONES AS CDK INHIBITORS” (PROSENESTAR LLC, priority 2020, published 2023)
≈ marks a conversion by molar mass, not a printed value. Read-outs that look alike come from different tables or passages of the source.

How the values were obtained:
[1] = not told
[2] = Permeability Caco-2 cells; assay type: in vitro ADME; conditions: human, Caco-2
Caco-2 cells = assay: Permeability Caco-2 cells; assay type: in vitro ADME
[3] = Thermodynamic solubility (pH 7.4); assay type: physicochemical; conditions: pH 7.4, aqueous buffer, thermodynamic from solid
[4] = system: U87MG glioblastoma cell line; assay: Proliferation assay: determination of GI50; assay type: cell-based, human; conditions: Homo sapiens, U-87 MG
Description: (§1) The following human tumor cell lines, all Retinoblastoma (Rb)-proficient, were used in this study: MDA-MB231 (breast cancer), MDA-MB453 (breast cancer), U87MG (glioblastoma) and H460 (lung cancer). MDA-MB468 (breast cancer) and SW1783 (glioblastoma) Rb-deficient cells were also included in the study, as well as the MCF10A non-transformed mammary epithelial cell line. Tumor cell lines were maintained in DMEM or RPMI-1640 medium, depending on the cell line, supplemented with 10% FBS. MCF10A cells were grown in complete mammary epithelial growth medium (MEGM, Lonza). Cell lines were authenticated by short tandem repeat (STR) loci profiling with the GenePrint® 10 System (Promega).
(§2) All human cancer cell lines (Table 2) were obtained from the American Type Culture Collection, and were maintained in DMEM (Hyclone) or RPMI-1640 medium (Sigma) supplemented with 10% fetal bovine serum (Sigma). Non-transformed MCF10 cell line was maintained in MEGM Mammary Epithelial Cell Growth Medium (Lonza). Immortalized mouse embryonic fibroblasts (MEFs) were maintained in DMEM with 10% fetal bovine serum.
(§3) 48 h later cells were fixed with PFA 4% for 15 minutes, stained with 10 μg/ml Hoechst 33342 (Molecular Probes, Thermo Fisher) for 30 minutes and washed twice with PBS. Cells were imaged in a high content screening system (Opera Phoenix™, Perkin Elmer) using a 20× dry objective (30 fields/well). Cell counts were determined by the Opera software (Perkin Elmer) and data were further processed with SPSS software. GI50 was calculated by estimating the absolute IC50 using dose-response inhibition tool in Prism6 (Graphpad Software Inc.).

[5] = system: MCF10 non-transformed mammary epithelial cell line; assay: Proliferation assay: determination of GI50; assay type: cell-based, human; conditions: Homo sapiens, MCF10; Table 3; 48 h; n = 2 independent experiments
Description: as §1, §2, §3

[6] = system: H460 lung carcinoma cell line; assay: Proliferation assay: determination of GI50; assay type: cell-based, human; conditions: Homo sapiens, NCI-H460; Table 3; 48 h; n = 2 independent experiments
Description: as §1, §2, §3

[7] = system: MDA-MB-231 breast carcinoma cell line; assay: Proliferation assay: determination of GI50; assay type: cell-based, human; conditions: Homo sapiens, MDA-MB-231
Description: as §1, §2, §3

[8] = Metabolic stability in hepatocytes; assay type: in vitro ADME; conditions: mouse, 60-90 min test
Cdk4/6_KO MEFs = assay: Cell growth in Cdk-deficient MEFs; assay type: cell-based, mouse; conditions: relative cell count day 6 versus day 3; FIG. 4
Description: (§4) Cdk-deficient MEFs were plated in 10-cm dish in triplicate (100,000/well) and treated with the selected compounds at the indicated concentration, based on GI50 previously determined in the MDA-MB-231 cell line. Cells were counted in an optical microscope 3 and 6 days after treatment to estimate the relative cell growth in each condition.
(§5) To further investigate the relative functional dependence of the subject compounds on CDK2 versus CDK4 or CDK6, the specific effects of PS004, PS006 and PS009 were tested on CDK-deficient mouse embryonic fibroblasts (MEFs) obtained from Cdk2 knock out, Cdk4; Cdk6-double knock out and Cdk2; Cdk4; Cdk6-triple knock out mouse models.

Cdk2/4/6_KO MEFs = assay: Cell growth in Cdk-deficient MEFs; assay type: cell-based, mouse; conditions: relative cell count day 6 versus day 3; FIG. 4
Description: as §4, §5

[9] = Kinetic solubility (pH 7.4); assay type: physicochemical; conditions: pH 7.4, aqueous buffer, kinetic from dmso stock
CDK19/CycC = CDK19/CycC (Homo sapiens, UniProt Q9BWU1); assay: Kinase profiling; assay type: biochemical; conditions: 10 semi-logarithmic dilutions from 50 μM, singlicate
CDK19/CycC, sequence (Q9BWU1 whole entry): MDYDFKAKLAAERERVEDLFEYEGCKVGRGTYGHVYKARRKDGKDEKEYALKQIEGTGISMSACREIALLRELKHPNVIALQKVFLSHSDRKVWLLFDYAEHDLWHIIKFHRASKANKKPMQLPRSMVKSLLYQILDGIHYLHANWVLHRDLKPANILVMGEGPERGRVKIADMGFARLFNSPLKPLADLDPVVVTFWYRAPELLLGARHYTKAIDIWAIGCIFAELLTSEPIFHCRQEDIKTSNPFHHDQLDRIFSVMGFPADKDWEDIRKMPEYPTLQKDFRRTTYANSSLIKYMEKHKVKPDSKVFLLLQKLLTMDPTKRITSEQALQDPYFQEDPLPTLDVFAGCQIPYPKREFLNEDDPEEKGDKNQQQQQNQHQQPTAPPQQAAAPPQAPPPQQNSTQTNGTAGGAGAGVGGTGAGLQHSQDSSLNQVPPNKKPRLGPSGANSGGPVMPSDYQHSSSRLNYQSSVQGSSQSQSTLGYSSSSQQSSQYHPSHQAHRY
CDK19/CycC, sequence (P24863 whole entry partner): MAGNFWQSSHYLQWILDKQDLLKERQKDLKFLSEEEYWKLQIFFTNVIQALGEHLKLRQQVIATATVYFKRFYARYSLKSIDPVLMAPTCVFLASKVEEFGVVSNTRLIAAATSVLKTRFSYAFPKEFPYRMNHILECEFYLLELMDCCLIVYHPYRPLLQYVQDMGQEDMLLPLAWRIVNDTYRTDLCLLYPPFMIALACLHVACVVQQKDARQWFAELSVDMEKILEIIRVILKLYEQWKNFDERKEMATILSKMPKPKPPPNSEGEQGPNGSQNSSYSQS

[10] = Metabolic stability in hepatocytes; assay type: in vitro ADME; conditions: human, 60-90 min test
[11] = Metabolic stability in microsomes; assay type: in vitro ADME; conditions: human, 60-90 min test
[12] = system: SW1783 glioblastoma cell line (pRB mutant); assay: Proliferation assay: determination of GI50; assay type: cell-based; conditions: Homo sapiens, Table 4, n = 4, read-out: Growth inhibition GI50, Glioblastoma pRB Mutant SW1783
Description: as §1, §2, §3

[13] = system: MDA-MB-468 breast carcinoma cell line (pRB mutant); assay: Proliferation assay: determination of GI50; assay type: cell-based; conditions: Homo sapiens, Table 4, n = 2, read-out: Growth inhibition GI50, Breast cancer pRB Mutant MDA-MB-468
Description: as §1, §2, §3

DYRK2 = target: T1, DYRK2 (Homo sapiens, UniProt Q92630); assay: Kinase profiling; assay type: biochemical; conditions: 10 semi-logarithmic dilutions from 50 μM, singlicate; read-out: IC50 DYRK2
T1 sequence (Q92630 1-601): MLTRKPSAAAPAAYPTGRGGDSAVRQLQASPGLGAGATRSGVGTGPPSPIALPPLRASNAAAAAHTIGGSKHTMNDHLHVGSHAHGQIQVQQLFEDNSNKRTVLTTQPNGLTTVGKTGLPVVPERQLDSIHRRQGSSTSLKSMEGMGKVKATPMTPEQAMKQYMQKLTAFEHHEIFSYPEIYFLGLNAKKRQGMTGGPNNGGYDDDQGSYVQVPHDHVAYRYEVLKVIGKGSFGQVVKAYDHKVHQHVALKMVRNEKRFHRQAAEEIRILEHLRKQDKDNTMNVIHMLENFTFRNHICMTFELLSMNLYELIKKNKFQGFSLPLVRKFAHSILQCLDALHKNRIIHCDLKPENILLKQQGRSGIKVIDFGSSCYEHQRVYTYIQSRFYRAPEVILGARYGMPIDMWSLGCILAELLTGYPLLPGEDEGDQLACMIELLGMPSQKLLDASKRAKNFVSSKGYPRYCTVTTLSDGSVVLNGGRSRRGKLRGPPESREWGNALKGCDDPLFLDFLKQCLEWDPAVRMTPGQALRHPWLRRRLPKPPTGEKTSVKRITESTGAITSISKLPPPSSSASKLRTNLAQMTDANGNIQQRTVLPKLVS

[14] = Metabolic stability in microsomes; assay type: in vitro ADME; conditions: mouse, 60-90 min test

Compound: CC(=O)c1c(C)c2cnc(Nc3ccc(N4CCNCC4)cn3)nc2n(C2CCCC2)c1=O [Palbociclib, reference compound]
- Summary: permeability [1]: Low
- Papp [2]: 0.4 ×10⁻⁶ cm/s
- Permeability Caco-2 cells: Permeability, grade in words (Caco-2 cells): (low)
- solubility thermodynamic [3]: 2.32 µM (≈ 1.04 µg/mL)
- GI50 ([4]; Table 3, 48 h, n = 3 independent experiments, read-out: GI50 U87MG): 0.43 µM
- GI50 ([4]; Table 4, n = 4, read-out: Growth inhibition GI50, Glioblastoma pRB Wild-Type U87MG): 5.7 µM
- GI50 [5]: 470 nM
- GI50 [6]: 1320 nM
- GI50 ([7]; Table 3, 48 h, n = 3 independent experiments, read-out: GI50 MDA-MB231): 740 nM
- GI50 ([7]; Table 4, n = 4, read-out: Growth inhibition GI50, Breast cancer pRB Wild-Type MDA-MB-231): 1700 nM
- hepatocyte CLint ([8]; read-out: Metabolic stability, Mouse heptocytes: Clearance): 14.4 µL/min/1e6 cells
- half-life ([8]; read-out: Metabolic stability, Mouse heptocytes: t1/2): 96.5 min
- cell proliferation of Cdk4; Cdk6-double knock out MEFs (Cdk4/6_KO MEFs): did not show activity
- cell proliferation of Cdk2; Cdk4; Cdk6-triple knock out MEFs (Cdk2/4/6_KO MEFs): did not show activity
- solubility kinetic [9]: 19.9 µM (≈ 8.92 µg/mL)
- IC50 (CDK19/CycC): 11.8 µM
- hepatocyte CLint ([10]; read-out: Metabolic stability, Human hepatocytes: Clearance): < 6.4 µL/min/1e6 cells
- half-life ([10]; read-out: Metabolic stability, Human hepatocytes: t1/2): > 217 min
- microsomal CLint ([11]; read-out: Metabolic stability, Human microsomes: Clearance): 23.6 µL/min/mg
- half-life ([11]; read-out: Metabolic stability, Human microsomes: t1/2): 58.8 min
- GI50 [12]: 19.9 µM
- GI50 [13]: 9.5 µM
- IC50 (DYRK2): 6.91 µM
- microsomal CLint ([14]; read-out: Metabolic stability, Mouse microsomes: Clearance): 18.3 µL/min/mg
- half-life ([14]; read-out: Metabolic stability, Mouse microsomes: t1/2): 75.7 min
